These are literature values, as cited in patent publication US9131678B1, “Ultraviolet strategy for avian repellency” (The United States of America, as represented by the …, priority 2009, dated 2015).

The structures appear in SMILES notation. Where only a bound is given, the exact number is not on record here.

For data set [1], the system named is male red-winged blackbirds. The following applies: 2,500 ppm caffeine, male red-winged blackbirds in captivity.
In another data set the test system is Blackbirds. The following applies: rice seeds treated with 10,000 ppm caffeine, field conditions; >80% of untreated rice seeds consumed.

`Cn1c(=O)c2c(ncn2C)n(C)c1=O` [caffeine]: in data set [1], the “reduction of rice consumption” value was 76%. The rice seeds consumed with Blackbirds is given as < 10%.
